Data from patent US20240043394A1, “PROTEASOME ENHANCERS AND USES THEREOF” (Board of Trustees of Michigan State University, priority 2020, published 2024).

Experiments:
Type in all cases: biochemical
[1] = molecular target: T1, purified human 20S proteasome (Homo sapiens, UniProt P25787+P60900); experiment: 20S proteasome small peptide assay, combination of all three fluorogenic substrates (CT-L/Casp-L/T-L); parameters: key to 20S proteasome activation, classed in words: compounds that exhibit a maximum fold enhancement of <2 fold (i.e. <200%) at a concentration >20 μM were considered inactive; conditions: for AC200 CT-L/Casp-L/T-L: concentration needed to double (200%) the rate of substrate degradation vs vehicle; for AC200 CT-L/Casp-L/T-L / Max Fold CT-L/Casp-L/T-L: three probes combined; for Max Fold CT-L/Casp-L/T-L: maximum fold rate increase vs vehicle control; for 20S proteasome activation, classed in words: concentrations tested 1.25 μM to 80 μM
T1 construct: purchased Boston Biochem or Life Sensors E-360 or ps020
Method: (§1) In vitro testing, 20S activation: The 20S proteasome activity of the compounds was assessed by utilizing the standard fluorogenic 7-amino-methylcoumarin (AMC) conjugated small peptide substrates that correspond to each of the catalytic sites in the 20S proteasome: chymotryptic-like site (Suc-LLVY-AMC), caspase-like site (Z-LLE-AMC), and trypsin-like site (Boc-LRR-AMC). When the small peptide substrate is degraded by the 20S proteasome, the AMC fluorophore is released and quantified to measure the rate of proteolytic cleavage. The 20S proteasome activity of the small molecules was evaluated at varying concentrations to determine the concentration at which the rate of proteolysis was doubled (i.e. the concentration needed to induce 200% activity) compared to the vehicle control (hereafter named as AC200). Concentrations ranging from 1.25 μM to 80 μM of each of compound were added to wells that contained 0.5 nM of purified human proteasome.
(§2) The overall enhancement of the rate of proteolysis of the 20S proteasome by a small molecule was first evaluated by adding a combination of all three peptide substrates to the treated sample. The combination of all three substrates represents a more accurate measurement of proteolytic activity of the proteasome because the catalytic sites housed in the β ring of the 20S proteasome communicate through allosteric interactions. For example, when a protein substrate encounters the chymotryptic-like site, a conformational change will occur activating the caspase-like site.^61 The individual contribution of each of the three catalytic sites was subsequently evaluated by adding only the corresponding peptide probes to gain insight into the contribution of each site on the overall enhanced proteolytic activity.
(§3) The fluorescent output, due to release of the AMC fluorophore, was then converted to the fold increase compared to a vehicle control sample, and the AC200 was calculated. […] (Table 1).
(§4) AC200 represents the concentration needed to double (e.g., 200%) the rate of substrate degradation compared to vehicle control. Max fold is the maximum fold rate increase compared to vehicle control.
(§5) 20S Proteasome Small Peptide Assay: Activity assays were carried out in a black flat/clear bottom 96 well plate with a […] volume. Concentrations of the potential activators, varying from 80 μM to 1.25 μM, were added to the well that contained 1 nM 20S proteasome purchased from either Boston Biochem (catalog number E-360) or Life Sensors (catalog number ps020), in a […] buffer at a pH of 7.8. This solution was left to incubate at 37° C. for 15 minutes. For the assay for the overall proteasome activity, 13.33 μM of each small peptide substrate is added. The 96 well plate is then placed into a plate reader (SpectraMax M5e spectrometer) and the plate reader will take a fluorescent reading every 5 minutes for an hour at 37° C. The enzymatic activity of the 20S proteasome is quantified using the fluorescent output at 380-460 nm, which is converted to max fold increase over the untreated sample. The activity of the individual catalytic assays is identical to the assay that assesses the overall activity of the 20S proteasome except only one small peptide substrate is added. To evaluate the activity of the CT-L and the Casp-L sites, 10 μM of the Suc-LLVY-AMC (Boston Biochem S-280) and Z-LLE-AMC (Boston Biochem S-230) were added, respectively. To evaluate the activity of the T-L site, 20 μM of the Boc-LRR-AMC (Boston Biochem S-300) is added.

[2] = molecular target: T2, purified human 20S proteasome, Casp-L site (Homo sapiens, UniProt P25787+P60900); experiment: 20S proteasome small peptide assay, Z-LLE-AMC caspase-like probe; conditions: for AC200 Casp-L site: concentration needed to double rate vs vehicle; for Max Fold Casp-L site: maximum fold rate increase vs vehicle
T2 construct: purchased Boston Biochem or Life Sensors E-360 or ps020
Method: as §1, §2, §3, §4, §5

[3] = molecular target: T3, purified human 20S proteasome, T-L site (Homo sapiens, UniProt P25787+P60900); experiment: 20S proteasome small peptide assay, Boc-LRR-AMC trypsin-like probe; conditions: for AC200 T-L site: concentration needed to double rate vs vehicle; for Max Fold T-L site: maximum fold rate increase vs vehicle
T3 construct: purchased Boston Biochem or Life Sensors E-360 or ps020
Method: as §1, §2, §3, §4, §5

[4] = molecular target: T4, purified human 20S proteasome, CT-L site (Homo sapiens, UniProt P25787+P60900); experiment: 20S proteasome small peptide assay, Suc-LLVY-AMC chymotryptic-like probe; conditions: for AC200 CT-L site: concentration needed to double rate vs vehicle; for Max Fold CT-L site: maximum fold rate increase vs vehicle
T4 construct: purchased Boston Biochem or Life Sensors E-360 or ps020
Method: as §1, §2, §3, §4, §5

SMILES | potency relative to compound 7 (times less potent) ([1]; 20S proteasome activation, compared with electron poor counterpart 7) [×] | AC200 CT-L/Casp-L/T-L [1] [µM] | Max Fold CT-L/Casp-L/T-L [1] [fold] | AC200 Casp-L site [2] [µM] | Max Fold Casp-L site [2] [fold] | AC200 T-L site [3] [µM] | Max Fold T-L site [3] [fold] | AC200 CT-L site [4] [µM] | Max Fold CT-L site [4] [fold] | 20S proteasome activation, classed in words [1]
Nc1cccc(CN2c3ccccc3Sc3ccc(Cl)cc32)c1 [Compound 9, 3-((2-Chloro-10H-phenothiazin-10-yl)methyl)aniline] | 3 | 3.6 | 8 | 3.8 | 10 | 9.2 | 10 | 6.5 | 9 | 
Clc1ccc2c(c1)N(Cc1ccccc1)c1ccccc1S2 [Compound 1, 10-Benzyl-2-chloro-10H-phenothiazine] |  | 1.5 | 2 | >80 |  | 3.1 | 2 | 2.8 | 3 | 
NC(=O)C=CN1c2ccccc2Sc2ccc(Cl)cc21 [Compound 15, 3-(2-chloro-10H-phenothiazin-10-yl)propenamide] |  | >80 |  | >80 |  | >80 |  | >80 |  | inactive
CC(C)(C)OC(=O)c1ccc(CN2c3ccccc3Sc3ccc(Cl)cc32)cc1 [Compound 3, Tert-butyl 4-((2-chloro-10H-phenothiazin-10-yl)methyl)benzoate] |  | >80 |  | >80 |  | >80 |  | >80 |  | inactive
CC(=O)Oc1ccc(CN2c3ccccc3Sc3ccc(Cl)cc32)cc1 [Compound 6, 4-((2-Chloro-10H-phenothiazin-10-yl)methyl)phenyl acetate] |  | >80 |  | >80 |  | >80 |  | >80 |  | inactive
O=C(C=CN1c2ccccc2Sc2ccc(Cl)cc21)Nc1ccccc1 [Compound 17, 3-(2-chloro-10H-phenothiazin-10-yl)-N-phenylpropenamide] |  | 40 | 2.5 | >80 |  | 80 | 2 | >80 |  | 
NC(=O)CCCCN1c2ccccc2Sc2ccc(Cl)cc21 [Compound 11, 5-(2-Chloro-10H-phenothiazin-10-yl)pentanamide] |  | >80 |  | >80 |  | >80 |  | >80 |  | inactive
O=[N+]([O-])c1cccc(CN2c3ccccc3Sc3ccc(Cl)cc32)c1 [Compound 7, 2-Chloro-10-(3-nitrobenzyl)-10H-phenothiazine] |  | 1.1 | 8 | 1.2 | 12 | 1.6 | 8 | 1.1 | 9 | 
COC(=O)c1cccc(CN2c3ccccc3Sc3ccc(Cl)cc32)c1 [Compound 5, Methyl 3-((2-chloro-10H-phenothiazin-10-yl)methyl)benzoate] |  | 2.4 | 6 | 9.7 | 4 | 1.9 | 8 | 2.4 | 6 | 
COc1cccc(CN2c3ccccc3Sc3ccc(Cl)cc32)c1 [Compound 4, 2-Chloro-10-(3-methoxybenzyl)-10H-phenothiazine] |  | 1.5 | 4 | 1.3 | 4 | 5.4 | 2 | >80 |  | 
CN(C)C(=O)CCN1c2ccccc2Sc2ccc(Cl)cc21 [Compound 16, 3-(2-chloro-10H-phenothiazin-10-yl)-N,N-dimethylpropanamide] |  | >80 |  | >80 |  | >80 |  | >80 |  | inactive
N#CCCCCN1c2ccccc2Sc2ccc(Cl)cc21 [Compound 10, 5-(2-chloro-10H-phenothiazin-10-yl)pentanenitrile] |  | >80 |  | >80 |  | >80 |  | >80 |  | inactive
CN(C(=O)CCN1c2ccccc2Sc2ccc(Cl)cc21)c1ccc(F)cc1 [Compound 18, 3-(2-chloro-10H-phenothiazin-10-yl)-N-(4-fluorophenyl)-N-methylpropanamide] |  |  | 3 |  |  |  |  |  |  | 
